Assay results: patent publication US20040223967A1, “Blood coagulation factor-activating protein and antibody thereto” (RIKEN, priority 2000, published 2004)
Values joined by “and” are separate entries in the source; they are usually repeats but may differ in a detail not shown here. Identical values can stand only once. Like-named read-outs stand apart in the source and are kept apart here.

T1: F-IX-activating enzyme (Homo sapiens, UniProt P08246)
T1 construct: 1-219; from tissue; host or cells: erythrocyte membranes (crude surfactant extract)
T1 sequence (P08246 30-248): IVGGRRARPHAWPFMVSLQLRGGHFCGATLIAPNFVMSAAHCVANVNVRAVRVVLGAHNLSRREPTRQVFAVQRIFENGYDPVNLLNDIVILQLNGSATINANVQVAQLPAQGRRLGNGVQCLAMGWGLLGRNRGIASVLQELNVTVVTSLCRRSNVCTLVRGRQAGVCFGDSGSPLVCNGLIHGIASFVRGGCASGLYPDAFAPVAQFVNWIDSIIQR

T2: factor IX-activating protein (erythrocyte membrane extract) (Homo sapiens, UniProt P08246)
T2 construct: 1-219; from tissue; host or cells: erythrocyte membranes (surfactant extract / chromatography fractions)
T2 sequence (P08246 30-248): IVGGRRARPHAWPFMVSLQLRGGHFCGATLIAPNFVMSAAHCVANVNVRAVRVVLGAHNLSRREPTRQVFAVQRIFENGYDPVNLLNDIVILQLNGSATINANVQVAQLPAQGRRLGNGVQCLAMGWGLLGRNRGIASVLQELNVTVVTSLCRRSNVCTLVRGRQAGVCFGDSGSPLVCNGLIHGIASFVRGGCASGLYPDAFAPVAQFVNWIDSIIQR


Tests used:
[1] = biological target: T1, F-IX-activating enzyme; assay: Assay of inhibitor effect: fluorogenic substrate Suc(OMe)-Ala-Ala-Pro-Val-MCA with crude enzyme extract; type: biochemical
Procedure: Relative activity of the enzyme is a ratio of the fluorogenic intensity of the mixture of a fluorogenic synthetic substrate (Suc(OME)-Ala-Ala-Pro-Val-MCA), specific for elastase, the enzyme and inhibitor or antibody to that of the mixture of the fluorogenic substrate and enzyme not containing inhibitor or antibody (control).
To measure the fluorescence intensity of a mixture of inhibitor and the enzyme or elastase, 3 μl of 2 mM fluorogenic synthetic substrate, 2 μl of the enzyme or elastase (concentration: 0.5 mU) and inhibitor or antibody were added to 190 μl HEPES buffer. After incubating the mixture for 30 min at 37° C., 100 μl of the incubated mixture was added to 2 ml of HEPES buffer and the fluorescence intensity was measured using a fluorescence spectrophotometer at λex=380 nm and λem=460 nm.
In the experiments, a crude extract with enzymatic activity, before subjecting to anion-exchange chromatography, was used.

[2] = biological target: T2, factor IX-activating protein (erythrocyte membrane extract); assay: Activation of factor IX by the erythrocyte membrane extract, examined by SDS-PAGE; type: biochemical; conditions: inhibitor added to solution containing the extract
Procedure: 25 μg of pure factor IX (Enzyme Res. Lab.) was dissolved in 50 μl of HEPES buffer, and was mixed with washed erythrocytes (hematocrit: about 40%). 10 μl of 26 mM CaCl2 was added to the suspension, and the mixture was incubated at 37° C. for 30 minutes, and then 30 μl of 0.1 M EDTA was added to the suspension to stop the reaction. The suspension was centrifuged to completely remove erythrocytes, and the supernatant was subjected to SDS-PAGE and Western blot analysis to examine whether the coagulation factor was activated or not. 7.5 to 15% gradient gel was used, and electrophoresis was performed at a constant current of 20 mA in the presence of 0.1% SDS. Protein bands were stained for 3 hours with a 50% ethanol (v/v)/7% acetic acid solution containing 0.25% (w/v) Coomassie brilliant blue R-250 (CBB). When activated factor IX was detected by SDS-PAGE, immunostaining was performed to confirm that the resulting band was of activated coagulation factor IX. In the immunostaining procedures, the gel subjected to electrophoresis was buffered using Towbin buffer (25 mM Tris-HCl (pH 8.3), 192 mM glycin, 20% (v/v) methanol, 0.1% SDS) for 15 minutes, followed by transferring to a polyvinylidene difluoride (PVDF) membrane under conditions of 15V and 150 mA. […]

[3] = material concentration 1 mM, 30 min at 37° C., control without material = 100.0

| Relative activity of the enzyme (%) [1, 3] | Molecule | also measured |
| --- | --- | --- |
| 156.4% | [Ca+2].[Cl-].[Cl-] [CaCl2] |  |
| 74.5% | O=C(O)CN(CCN(CC(=O)O)CC(=O)O)CC(=O)O [EDTA, reference compound] | Relative activity of the enzyme (%) ([1]; material concentration 10 mM, 30 min at 37° C., control without material = 100.0): 27.0% |
| 100.5% | [Cl-].[Cl-].[Mg+2] [MgCl2] |  |
|  | [Cl-].[Na+] [NaCl] | Relative activity of the enzyme (%) [1]: 95.5% and 84.3% |
| 28.8% | c1cnc2c(c1)ccc1cccnc12 [Phenanthroline, reference compound] |  |
|  | soybean trypsin inhibitor (protein) DFVLDNEGNPLENGGTYYILSDITAFGGIRAAPTGNERCPLTVVQSRNELDKGIGTIISSPYRIRFIAEGHPLSLKFDSFAVIMLCVGIPTEWSVVEDLPEGPAVKIGENKDAMDGWFRLERVSDDEFNNYKLVFCPQQAEDDKCGDIGISIDHDDGTRRLVVSKNKPLVVQFQKLDKESL | activation of factor IX by the extract [2]: inhibited; Relative activity of the enzyme (%) ([1]; material concentration 1%, 30 min at 37° C., control without material = 100.0): 65.1% |

| Molecule | Relative activity of the enzyme (%) [1, 3] | also measured |
| --- | --- | --- |
| CC(=O)N[C@@H](CC(C)C)C(=O)N[C@@H](CC(C)C)C(=O)N[C@H](C=O)CCCNC(=N)N [Leupeptin, reference compound] | 78.5% |  |
| O=S(=O)(F)Cc1ccccc1 [PMSF, reference compound] | 19.2% |  |
